Measurements taken from patent US5877334A, “Intermediates useful in solid phase synthesis method” (Abbott Laboratories, priority 1996, dated 1999).

These molecules were tested against HIV1 protease (Human immunodeficiency virus type 1 group M subtype B, UniProt P04585) (assay: inhibition of HIV1 protease). Conditions: A. Mono-ol (X = H); read-out: IC50 against HIV1 protease, A. Mono-ol (X = H).
Type: biochemical
Description: ^a The IC50 against HIV1 protease was measured according to the
method described in U.S. Pat. No. 5,354,866, issued October 11, 1994.

IC50, < 1 nM:
CC(C)[C@H](NC(=O)CC1NC(=O)NC1=O)C(=O)N[C@@H](Cc1ccccc1)C[C@H](O)[C@H](Cc1ccccc1)NC(=O)[C@@H](NC(=O)CC1NC(=O)NC1=O)C(C)C (stereo partly shown) [Example 7A]
CC(C)[C@H](NC(=O)Cc1csc(N)n1)C(=O)N[C@@H](Cc1ccccc1)C[C@H](O)[C@H](Cc1ccccc1)NC(=O)[C@@H](NC(=O)Cc1csc(N)n1)C(C)C [Example 8A]
COc1cc(CC(=O)N[C@H](C(=O)N[C@@H](Cc2ccccc2)C[C@H](O)[C@H](Cc2ccccc2)NC(=O)[C@@H](NC(=O)Cc2cc(OC)c(OC)c(OC)c2)C(C)C)C(C)C)cc(OC)c1OC [Example 9A]
CC(C)[C@H](NC(=O)CSc1ncccn1)C(=O)N[C@@H](Cc1ccccc1)C[C@H](O)[C@H](Cc1ccccc1)NC(=O)[C@@H](NC(=O)CSc1ncccn1)C(C)C [Example 10A]
